According to ChEMBL document CHEMBL3585323, “Effect of intercalator substituent and nucleotide sequence on the stability of DNA- and RNA-naphthalimide complexes” (Bioorg Med Chem, 2015):
Activity calls are given as the source filed them. The calls are words filed in the database; no cut-off is given here.

How the values were obtained:
[1] = Binding affinity to 5'-d(GTCCGTCGGAC)-3'/5'-(GTCCGACGGAC)-3' DNA assessed as change in melting temperature at 1:1 DNA to compound molar ratio by spectrophotometric analysis
[2] = system: Nucleic Acid; test: Induction of DNA intercalation using 5'-r(GUCCGCGGAC)2-3' at 250 uM by UV-vis spectrophotometric analysis; assay type: nucleic-acid assay
[3] = Binding affinity to 5'-r(GUCCGCGGAC)2-3' DNA assessed as change in melting temperature at 1:1 DNA to compound molar ratio by spectrophotometric analysis
[4] = system: Nucleic Acid; test: Induction of DNA intercalation using 5'-d(GTCCGTCGGAC)-3'/5'-(GTCCGACGGAC)-3' at 250 uM by UV-vis spectrophotometric analysis; assay type: nucleic-acid assay
[5] = Binding affinity to 5'-r(GCGCGCGC)2-3' DNA assessed as change in melting temperature at 1:1 DNA to compound molar ratio by spectrophotometric analysis
[6] = system: Nucleic Acid; test: Induction of DNA intercalation using 5'-d(ATATATGATATA)-3'/5'-(TATATCATATAT)-3' at 250 uM by UV-vis spectrophotometric analysis; assay type: nucleic-acid assay
[7] = system: Nucleic Acid; test: Induction of DNA intercalation using 5'-d(GTCCGCGGAC)2-3' at 250 uM by UV-vis spectrophotometric analysis; assay type: nucleic-acid assay
[8] = Binding affinity to 5'-d(ATATAGTATATA)-3'/5'-(TATATACTATAT)-3' DNA assessed as change in melting temperature at 1:1 DNA to compound molar ratio by spectrophotometric analysis
[9] = system: Nucleic Acid; test: Induction of DNA intercalation using 5'-d(GTAATATTAC)2-3' at 250 uM by UV-vis spectrophotometric analysis; assay type: nucleic-acid assay
[10] = Binding affinity to 5'-d(GTCCGCGGAC)2-3' DNA assessed as change in melting temperature at 1:1 DNA to compound molar ratio by spectrophotometric analysis
[11] = system: Nucleic Acid; test: Induction of DNA intercalation using 5'-d(GCGCGCGC)2-3' at 250 uM by UV-vis spectrophotometric analysis; assay type: nucleic-acid assay
[12] = system: Nucleic Acid; test: Induction of DNA intercalation using 5'-d(ATATATATATAT)2-3' at 250 uM by UV-vis spectrophotometric analysis; assay type: nucleic-acid assay
[13] = system: Nucleic Acid; test: Induction of DNA intercalation using 5'-r(GCGCGCGC)2-3' at 250 uM by UV-vis spectrophotometric analysis; assay type: nucleic-acid assay
[14] = Binding affinity to 5'-d(GCGCGCGC)2-3' DNA assessed as change in melting temperature at 1:1 DNA to compound molar ratio by spectrophotometric analysis
[15] = system: Nucleic Acid; test: Induction of DNA intercalation using 5'-d(ATATAGTATATA)-3'/5'-(TATATACTATAT)-3' at 250 uM by UV-vis spectrophotometric analysis; assay type: nucleic-acid assay
[16] = Binding affinity to 5'-d(GTAATATTAC)2-3' DNA assessed as change in melting temperature at 1:1 DNA to compound molar ratio by spectrophotometric analysis
[17] = Binding affinity to 5'-d(ATATATATATAT)2-3' DNA assessed as change in melting temperature at 1:1 DNA to compound molar ratio by spectrophotometric analysis
[18] = Binding affinity to 5'-d(ATATATGATATA)-3'/5'-(TATATCATATAT)-3' DNA assessed as change in melting temperature at 1:1 DNA to compound molar ratio by spectrophotometric analysis
[19] = system: Nucleic Acid; test: Induction of DNA intercalation using 5'-d(GTCCGCGGAC)2-3' at 1:0, 1:0.5, 1:1, 1:1.5, 1:2 DNA to compound molar ratio by CD spectroscopic analysis; assay type: nucleic-acid assay
[20] = system: Nucleic Acid; test: Induction of DNA intercalation using 5'-d(CGATCG)2-3' by NMR analysis; assay type: nucleic-acid assay
[21] = system: Nucleic Acid; test: Induction of DNA intercalation using 5'-d(CGATCG)2-3' at 1:0.5 DNA to compound molar ratio by NMR analysis; assay type: nucleic-acid assay

Row | SMILES | ΔTm [1] [°C] | Activity [2] | ΔTm [3] [°C] | Activity [4] | ΔTm [5] [°C] | Activity [6] | Activity [7] | ΔTm [8] [°C] | Activity [9] | ΔTm [10] [°C] | Activity [11] | Activity [12] | Activity [13] | ΔTm [14] [°C] | Activity [15] | ΔTm [16] [°C] | ΔTm [17] [°C] | ΔTm [18] [°C] | also measured
1 | CN(C)CCN1C(=O)c2cccc3cc(Br)cc(c23)C1=O | 0 | Active | 2 | Active | 1.6 | Active | Active | 10.8 | Active | 6 | Active | Active | Active | 9.5 | Active | 6.3 | 0 | 13.9 | 
2 | CN(C)CCN1C(=O)c2cccc3cc(-c4ccccc4)cc(c23)C1=O | 0 | Active | 0 | Active | 0 | Active | Active | 5.8 | Active | 0 | Active | Active | Active | 0 | Active | 0 | 0 | 1.3 | 
3 | Cc1cc2c3c(cccc3c1)C(=O)N(CCN(C)C)C2=O | 0 | Active | 0 | Active | 0 | Active | Active | 0 | Active | 2.7 | Active | Active | Active | 3.2 | Active | 0 | 0 | 5.1 | 
4 | CN(C)CCN1C(=O)c2cccc3cc(Cl)cc(c23)C1=O | 0 | Active | 0 | Active | 0 | Active | Active | 0 | Active | 1.1 | Active | Active | Active | 6.3 | Active | 4.5 | 0 | 7 | 
5 | CC(C)Nc1cc2c3c(cccc3c1)C(=O)N(CCN(C)C)C2=O | 2.1 | Active | 1.1 | Active | 0 | Active | Active | 0 | Active | 0 | Active | Active | Active | 7.9 | Active | 7.3 | 0 | 16.4 | 
6 | CN(C)CCN1C(=O)c2cccc3cc(O)cc(c23)C1=O | 2.2 | Active | 0 | Active | 0 | Active | Active | 5.7 | Active | 1.6 | Active | Active | Active | 1.6 | Active | 4.4 | 0 | 14.7 | 
7 | CN(C)CCN1C(=O)c2cccc3cccc(c23)C1=O | 0 | Active | 0 | Active | 0 | Active | Active | 11.6 | Active | 5.6 | Active | Active | Active | 8.7 | Active | 8.1 | 0 | 19.4 | 
8 | CN(C)CCN1C(=O)c2cccc3cc([N+](=O)[O-])cc(c23)C1=O | 5 | Active | 2.2 | Active | 1.8 | Active | Active | 11.7 | Active | 13.3 | Active | Active | Active | 14.3 | Active | 12.6 | 0 | 17.2 | Activity [19]: Active; Activity [20]: Active
9 | CN(C)CCN1C(=O)c2cccc3cc(I)cc(c23)C1=O | 0 | Active | 0 | Active | 0 | Active | Active | 1.7 | Active | 0 | Active | Active | Active | 2.5 | Active | 4.4 | 0 | 8.4 | 
10 | CC(=O)Nc1cc2c3c(cccc3c1)C(=O)N(CCN(C)C)C2=O | 0 | Active | 0 | Active | 0 | Active | Active | 4.7 | Active | 5.6 | Active | Active | Active | 4.6 | Active | 8.6 | 0 | 8.8 | 
11 | CN(C)CCN1C(=O)c2cccc3cc(N)cc(c23)C1=O | 0 | Active | 1 | Active | 1.1 | Active | Active | 10.1 | Active | 5.1 | Active | Active | Active | 16.9 | Active | 11.6 | 0 | 14.6 | Activity [21]: Active
